Laboratory results: patent EP1984014B1, “USE OF TPO PEPTIDE COMPOUNDS AND PHARMACEUTICAL COMPOSITIONS IN THE TREATMENT OF ANEMIA” (Janssen Pharmaceutica NV, priority 2006, dated 2007)

Experiments:
[1] = system: mice treated with two rounds of carboplatin; test: Example 5: two rounds of high-dose carboplatin, hematocrit and survival of mice; assay type: in vivo; conditions: of the mice not utilized for hematological evaluation; carboplatin alone versus combination therapy
Procedure: (§1) The effects of PEGylated TPO Compound No. 1 on mice treated with carboplatin were observed. For all examples herein, a 10 mg/ml stock solution of PEGylated TPO Compound No. 1 was prepared in sterile saline. For mixing, the preparation was placed on a gyratory shaker for 15min. at 200 rpm. This method was used to dissolve PEGylated TPO Compound No. 1 without foaming. The stock was filtered using a GV Millex (0.22um) filter. Dosing solutions were then prepared from this stock using sterile saline. The stock and dosing solutions were prepared fresh on the day of use.
Groups of mice were treated with two rounds of the chemotherapeutic agent (carboplatin) ten days apart, with each round consisting of two consecutive days of carboplatin (i.e., 70 mg/kg/day administered on Days -1 & 0 and Days 10 & 11) as delineated below. The dose of carboplatin utilized for these survival studies exceeded the maximal tolerated dose for mice (i.e., 120 mg/kg; administered as 60 mg/kg/day on 2 consecutive days). One hour following the second dose of carboplatin in each round (i.e., Day 0 and 11) mice were treated with PEGylated TPO Compound No. 1 (100ug/kg) or vehicle (sterile saline, SS, preservative-free 0.9% sodium chloride) by IV (bolus) injection as delineated below. The dose was administered on a per weight basis (100 ul/10g body weight). […]

carboplatin treated mice = test: Example 6: mechanistic study, increasing carboplatin doses, platelets, hematocrit, brain fibrinogen/fibrin histology; assay type: in vivo
Procedure: as §1
For mechanistic studies, groups of mice were treated with vehicle or increasing amounts of carboplatin (i.e., 60, 70 or 80 mg/kg) for 2 consecutive days (Day -1 & Day 0). Approximately one hour following the second dose of carboplatin, groups of mice were treated with PEGylated TPO Compound No.1 (100ug/kg) or vehicle (sterile saline, SS, preservative-free 0.9% sodium chloride) by IV.(bolus) injection as delineated in Table 5.
On Day 15, the mice in all treatment groups were euthanised using CO2-asphyxiation and exsanguinations via cardiac puncture. The blood samples were transferred to separate EDTA (lavender-top) microtainers for hematologic evaluation. In addition, several organs (including the brains) of control mice and mice treated with 2x70 mg/kg carboplatin without and with co-treatment with PEGylated TPO Compound No.1 were isolated and processed for histological examination. Sections of these tissues were processed immunohistochemically for fibrinogen/fibrin.

[2] = system: mice treated with carboplatin; test: Example 1: dose response of PEGylated TPO Compound No. 1 given one day after carboplatin, anemia in mice; assay type: in vivo, BALB/c mouse
Procedure: as §1
The effect of PEGylated TPO Compound No. 1 on the duration and severity of anemia following treatment of mice with carboplatin as determined by changes in hemoglobin levels, red blood cell count and hematocrit, was observed. For this study, increasing amounts of PEGylated TPO Compound No. 1 were administered to mice one day following a carboplatin dose to characterize a possible dose-dependent effect on various red blood cell parameters.
(§2) The groups of mice were treated with either carboplatin or vehicle (Phosphate Buffered Saline, PBS) by intraperitoneal administration on Days -2 and -1 as delineated below. The optimal dose of carboplatin used to induce thrombocytopenia in the BALB/c mouse strain was previously determined to be a fractionated total dose of 120mg/kg given as two consecutive daily injections (i.e., 2x60mg/kg). One day following the second dose of carboplatin, groups of mice were treated with PEGylated TPO Compound No. 1 or vehicle (sterile saline, SS, preservative-free 0.9% sodium chloride) by IV (bolus) injection as delineated in Table 1. The dose was administered on a per-weight basis (100ul/10g body weight).
(§3) On Days 5, 7, 9 and 11, five mice in each test group were weighed and then euthanised using CO2-asphyxiation and exsanguinations via cardiac puncture. The blood samples were transferred to separate EDTA (lavender-top) microcontainers for hematologic evaluation. Groups of control mice (5) were processed on Days 5 and 11. The data are presented graphically as group means +SEM.

carboplatin-treated mice = test: Example 4: lower doses (30, 100, 300ug/kg) as survival factor for erythrocyte lineages in carboplatin-treated mice; assay type: in vivo, BALB/c mouse
Procedure: as §1
The ability of PEGylated TPO Compound No. 1 to function as a survival factor for megakaryocyte and erythrocyte lineages in carboplatin-treated mice as determined by changes in hematological parameters was observed. […] In this study, the effect of lower doses of PEGylated TPO Compound No. 1 (i.e., 30, 100 and 300ug/kg) on the survival of erythrocyte lineages was examined to characterize the dose-response for this effect.
as §2, with “ip” for “intraperitoneal”, “-1” for “-2”, “0” for “-1”, “Approximately one hour” for “One day”, “4.” for “1.”
as §3, with “6, 8” for “5, 7, 9”, “12,” for “11,”, “6 & 12.” for “5 and 11. The data are presented graphically as group means +SEM.”

Methoxypolyethyleneglycol20000-propionyl-L-Isoleucyl-L-Glutamyl-Glycyl-L-Prolyl-L-Threonyl-L-Leucyl-L-Arginyl-L-Glutaminyl-L-2-Naphthylalanyl-L-Leucyl-L-Alanyl-L-Alanyl-L-Arginyl-Sarcosyl-Ne-(methoxypolyethyleneglycol20000-propionyl-L-Isoleucyl-L-Glutamyl-Glycyl-L-Prolyl-L-Threonyl-L-Leucyl-L-Arginyl-L-Glutaminyl-L-2-Naphthylalanyl-L-Leucyl-L-Alanyl-L-Alanyl-L-Arginyl-Sarcosyl-)-Lysinamide [PEGylated TPO Compound No. 1]
mice that died between days 4 and 18 [1]: 1 | small vessels in brain sections, fibrinogen/fibrin staining (carboplatin treated mice; 2x70mg/kg carboplatin plus 100ug/kg iv, Day 15): appeared normal or exhibited fibrinogen/fibrin staining that was only slightly darker than the control group | microthrombotic events in brain sections (carboplatin treated mice; 2x70mg/kg carboplatin plus 100ug/kg iv, entire dose group): single | survival (carboplatin treated mice; 2x80mg/kg carboplatin plus 100ug/kg iv, all of the mice): survived until the scheduled study termination | thrombocytopenia or anemia (carboplatin treated mice; 2x80mg/kg carboplatin plus 100ug/kg iv, on Day 15): did not exhibit thrombocytopenia or anemia | decreases in platelet and RBC counts induced by the carboplatin (carboplatin treated mice; carboplatin 2x60 or 2x70mg/kg, 100ug/kg iv about one hour after second carboplatin dose, Day 15): totally inhibited | fibrinogen deposition and blood clots in brain sections (carboplatin treated mice; carboplatin treated mice, FIG. 19): reduces | recovery of the lost body weight ([2]; all doses tested, 11-Day study period): enhanced the recovery of the lost body weight | altered appearance and behavior (hunched, flaccid, soiled anogenital areas) ([2]; appeared to be dose-dependent): decreased the onset, frequency and severity of these signs | decrease in hemoglobin levels caused by carboplatin ([2]; carboplatin 2x60mg/kg ip Days -2 & -1, all doses (300, 1000, 3000ug/kg iv Day 0), by Day 11): inhibited | decreases in RBC count and hematocrit associated with carboplatin treatment ([2]; carboplatin 2x60mg/kg ip, 300-3000ug/kg iv Day 0, no statistical evaluation): inhibited | weight loss or recovery (carboplatin-treated mice; 13-Day study period): did not appear to affect weight loss or recovery | decreases in RBC counts and hematocrit induced by carboplatin treatment (carboplatin-treated mice; 30, 100, 300ug/kg iv Day 0): effectively inhibited | decrease in hemoglobin levels caused by carboplatin (carboplatin-treated mice; all doses (30, 100, 300ug/kg iv Day 0, about 1 h after carboplatin), by Day 12): totally inhibited | anemia induced by carboplatin (carboplatin-treated mice; all doses, on Day 12): completely prevent | altered appearance and behavior (hunched, unkempt, soft stool) (carboplatin-treated mice; appeared to be dose-dependent): decreased the onset, frequency and severity of these signs
